In ChEMBL document CHEMBL4396971, “Discovery of potent and orally bioavailable indazole-based glucagon receptor antagonists for the treatment of type 2 diabetes” (Bioorg Med Chem Lett, 2019):
Activity calls are given as the source filed them. The calls are words filed in the database; no cut-off is given here.

System: not listed separately
Assay: AUClast in Sprague-Dawley rat at 2 mg/kg, iv or 10 mg/kg, po
Format: ADME, organism-based
Conditions: in vivo

AUC(0-t) [µM·h] | SMILES
1.4 | Cc1c(-c2ccc(C(F)(F)F)cc2Cl)ccc2nn([C@@H](CC(C)C)c3ccc(C(=O)NCCC(=O)O)cc3)cc12

System: not listed separately
Assay: AUClast in dog at 2 mg/kg, iv or 10 mg/kg, po
Format: ADME, organism-based, Canis lupus familiaris
Conditions: in vivo

AUC(0-t) [µM·h] | SMILES
248 | Cc1c(-c2ccc(C(F)(F)F)cc2Cl)ccc2nn([C@@H](CC(C)C)c3ccc(C(=O)NCCC(=O)O)cc3)cc12

System: not listed separately
Assay: Cmax in C57 mouse at 5 mg/kg, iv or 20 mg/kg, po
Format: ADME, organism-based
Conditions: in vivo

Cmax [µM] | SMILES
7.6 | Cc1c(-c2ccc(C(F)(F)F)cc2Cl)ccc2nn([C@@H](CC(C)C)c3ccc(C(=O)NCCC(=O)O)cc3)cc12

System: not listed separately
Assay: Cmax in Sprague-Dawley rat at 2 mg/kg, iv or 10 mg/kg, po
Format: ADME, organism-based
Conditions: in vivo

Cmax [µM] | SMILES
0.2 | Cc1c(-c2ccc(C(F)(F)F)cc2Cl)ccc2nn([C@@H](CC(C)C)c3ccc(C(=O)NCCC(=O)O)cc3)cc12

System: not listed separately
Assay: Cmax in dog at 2 mg/kg, iv or 10 mg/kg, po
Format: ADME, organism-based, Canis lupus familiaris
Conditions: in vivo

Cmax [µM] | SMILES
21.9 | Cc1c(-c2ccc(C(F)(F)F)cc2Cl)ccc2nn([C@@H](CC(C)C)c3ccc(C(=O)NCCC(=O)O)cc3)cc12

System: not listed separately
Assay: Oral bioavailability in C57 mouse at 20 mg/kg
Format: ADME, organism-based
Conditions: in vivo

bioavailability [%] | SMILES
78.6 | Cc1c(-c2ccc(C(F)(F)F)cc2Cl)ccc2nn([C@@H](CC(C)C)c3ccc(C(=O)NCCC(=O)O)cc3)cc12

System: not listed separately
Assay: Oral bioavailability in Sprague-Dawley rat at 10 mg/kg
Format: ADME, organism-based
Conditions: in vivo

bioavailability [%] | SMILES
13.2 | Cc1c(-c2ccc(C(F)(F)F)cc2Cl)ccc2nn([C@@H](CC(C)C)c3ccc(C(=O)NCCC(=O)O)cc3)cc12

System: not listed separately
Assay: Oral bioavailability in dog at 10 mg/kg
Format: ADME, organism-based, Canis lupus familiaris
Conditions: in vivo

bioavailability [%] | SMILES
35.7 | Cc1c(-c2ccc(C(F)(F)F)cc2Cl)ccc2nn([C@@H](CC(C)C)c3ccc(C(=O)NCCC(=O)O)cc3)cc12

System: not listed separately
Assay: Protein binding in human plasma at 1 uM
Format: ADME, cell-free
Conditions: read-out: PPB

fraction unbound at 1 µM | SMILES
0.0001 | Cc1c(-c2ccc(C(F)(F)F)cc2Cl)ccc2nn([C@@H](CC(C)C)c3ccc(C(=O)NCCC(=O)O)cc3)cc12

Biological target: T1, Cytochrome P450 3A4 (Homo sapiens, UniProt P08684)
T1 sequence (P08684 whole entry): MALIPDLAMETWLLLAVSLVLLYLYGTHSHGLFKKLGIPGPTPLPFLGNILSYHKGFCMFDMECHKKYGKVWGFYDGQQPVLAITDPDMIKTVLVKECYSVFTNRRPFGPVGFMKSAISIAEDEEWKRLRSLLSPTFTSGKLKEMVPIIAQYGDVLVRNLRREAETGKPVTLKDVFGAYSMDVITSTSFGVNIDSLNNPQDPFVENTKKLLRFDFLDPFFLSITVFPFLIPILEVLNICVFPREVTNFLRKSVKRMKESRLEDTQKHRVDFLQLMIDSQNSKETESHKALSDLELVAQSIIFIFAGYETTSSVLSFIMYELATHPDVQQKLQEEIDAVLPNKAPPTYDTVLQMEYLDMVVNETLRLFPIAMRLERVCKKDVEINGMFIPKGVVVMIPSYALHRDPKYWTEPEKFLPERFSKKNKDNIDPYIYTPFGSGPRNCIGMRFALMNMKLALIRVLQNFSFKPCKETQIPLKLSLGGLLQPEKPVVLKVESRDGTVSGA
Assay: Inhibition of CYP3A4 (unknown origin) using testosterone as substrate
Format: ADME
Conditions: not given

IC50 [µM] | SMILES
> 10 | Cc1c(-c2ccc(C(F)(F)F)cc2Cl)ccc2nn([C@@H](CC(C)C)c3ccc(C(=O)NCCC(=O)O)cc3)cc12

Biological target: T1, Cytochrome P450 3A4
Assay: Inhibition of CYP3A4 (unknown origin) using midazolam as substrate
Format: ADME
Conditions: not given

IC50 [µM] | SMILES
> 10 | Cc1c(-c2ccc(C(F)(F)F)cc2Cl)ccc2nn([C@@H](CC(C)C)c3ccc(C(=O)NCCC(=O)O)cc3)cc12

Biological target: Cytochrome P450 2C19 (Homo sapiens, UniProt P33261)
Sequence (P33261 whole entry): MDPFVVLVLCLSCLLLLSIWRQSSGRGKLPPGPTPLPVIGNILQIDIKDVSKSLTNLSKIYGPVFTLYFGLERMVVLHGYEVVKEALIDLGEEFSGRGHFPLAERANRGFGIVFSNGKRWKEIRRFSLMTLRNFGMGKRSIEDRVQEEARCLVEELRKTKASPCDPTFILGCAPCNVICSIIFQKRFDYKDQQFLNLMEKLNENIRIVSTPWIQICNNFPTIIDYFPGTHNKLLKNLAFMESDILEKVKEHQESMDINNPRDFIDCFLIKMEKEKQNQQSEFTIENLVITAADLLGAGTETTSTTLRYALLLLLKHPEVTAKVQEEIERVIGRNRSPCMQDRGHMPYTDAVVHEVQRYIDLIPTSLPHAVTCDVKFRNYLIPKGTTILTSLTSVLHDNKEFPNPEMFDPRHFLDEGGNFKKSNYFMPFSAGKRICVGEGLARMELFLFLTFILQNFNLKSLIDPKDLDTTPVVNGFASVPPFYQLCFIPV
Assay: Inhibition of CYP2C19 (unknown origin) using S-Mephenytoin as substrate
Format: ADME
Conditions: not given

IC50 [µM] | SMILES
> 10 | Cc1c(-c2ccc(C(F)(F)F)cc2Cl)ccc2nn([C@@H](CC(C)C)c3ccc(C(=O)NCCC(=O)O)cc3)cc12

Biological target: Cytochrome P450 2C9 (Homo sapiens, UniProt P11712)
Sequence (P11712 whole entry): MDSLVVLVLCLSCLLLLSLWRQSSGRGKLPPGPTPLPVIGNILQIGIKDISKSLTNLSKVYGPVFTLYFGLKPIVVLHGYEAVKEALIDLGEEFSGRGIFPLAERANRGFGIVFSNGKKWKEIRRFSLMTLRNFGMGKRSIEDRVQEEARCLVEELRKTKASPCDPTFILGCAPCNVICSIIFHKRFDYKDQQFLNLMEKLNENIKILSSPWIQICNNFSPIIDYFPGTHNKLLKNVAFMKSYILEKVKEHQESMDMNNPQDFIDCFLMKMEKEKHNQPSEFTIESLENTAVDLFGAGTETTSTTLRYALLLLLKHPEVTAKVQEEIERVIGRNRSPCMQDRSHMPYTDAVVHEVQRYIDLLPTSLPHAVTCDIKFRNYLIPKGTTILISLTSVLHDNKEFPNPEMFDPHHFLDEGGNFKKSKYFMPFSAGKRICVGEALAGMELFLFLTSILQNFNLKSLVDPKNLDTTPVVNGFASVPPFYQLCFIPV
Assay: Inhibition of CYP2C9 (unknown origin) using tolbutamide as substrate
Format: ADME
Conditions: not given

IC50 [µM] | SMILES
> 10 | Cc1c(-c2ccc(C(F)(F)F)cc2Cl)ccc2nn([C@@H](CC(C)C)c3ccc(C(=O)NCCC(=O)O)cc3)cc12

Biological target: T2, Cytochrome P450 1A2 (Homo sapiens, UniProt P05177)
T2 sequence (P05177 whole entry): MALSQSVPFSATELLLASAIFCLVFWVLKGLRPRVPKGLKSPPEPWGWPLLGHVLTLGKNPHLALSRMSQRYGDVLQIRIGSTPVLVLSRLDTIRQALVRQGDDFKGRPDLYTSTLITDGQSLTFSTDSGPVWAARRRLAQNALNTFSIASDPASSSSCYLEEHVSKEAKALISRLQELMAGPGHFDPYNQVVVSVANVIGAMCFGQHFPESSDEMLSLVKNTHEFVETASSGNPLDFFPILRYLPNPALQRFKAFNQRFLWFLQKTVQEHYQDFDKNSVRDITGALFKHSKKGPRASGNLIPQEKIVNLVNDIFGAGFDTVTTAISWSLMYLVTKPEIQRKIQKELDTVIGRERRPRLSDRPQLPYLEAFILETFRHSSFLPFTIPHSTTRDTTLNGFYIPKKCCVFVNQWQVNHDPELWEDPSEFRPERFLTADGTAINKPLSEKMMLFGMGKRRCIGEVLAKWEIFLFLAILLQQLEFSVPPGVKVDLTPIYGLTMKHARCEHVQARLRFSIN
Assay: Inhibition of CYP1A2 (unknown origin) using phenacetin as substrate
Format: ADME
Conditions: not given

IC50 [µM] | SMILES
> 10 | Cc1c(-c2ccc(C(F)(F)F)cc2Cl)ccc2nn([C@@H](CC(C)C)c3ccc(C(=O)NCCC(=O)O)cc3)cc12

Biological target: Cytochrome P450 2D6 (Homo sapiens, UniProt P10635)
Sequence (P10635 whole entry): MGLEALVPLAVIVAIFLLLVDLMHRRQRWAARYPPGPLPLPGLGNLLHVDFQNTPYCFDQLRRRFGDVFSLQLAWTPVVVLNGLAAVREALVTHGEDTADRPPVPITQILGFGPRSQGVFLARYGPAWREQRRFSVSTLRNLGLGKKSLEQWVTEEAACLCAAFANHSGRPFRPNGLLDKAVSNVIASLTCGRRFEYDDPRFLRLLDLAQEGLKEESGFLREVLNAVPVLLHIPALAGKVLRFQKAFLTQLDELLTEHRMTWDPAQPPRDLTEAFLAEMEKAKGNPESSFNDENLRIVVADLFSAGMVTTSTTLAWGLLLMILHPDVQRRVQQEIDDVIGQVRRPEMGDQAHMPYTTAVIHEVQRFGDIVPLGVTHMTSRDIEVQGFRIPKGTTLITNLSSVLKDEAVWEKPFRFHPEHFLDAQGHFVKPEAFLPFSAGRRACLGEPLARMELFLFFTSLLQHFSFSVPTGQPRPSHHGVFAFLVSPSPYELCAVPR
Assay: Inhibition of CYP2D6 (unknown origin) using dextromethorphan as substrate
Format: ADME
Conditions: not given

IC50 [µM] | SMILES
> 10 | Cc1c(-c2ccc(C(F)(F)F)cc2Cl)ccc2nn([C@@H](CC(C)C)c3ccc(C(=O)NCCC(=O)O)cc3)cc12

Biological target: not listed separately
Assay: Antagonist activity at GCGR in dog hepatocytes assessed as inhibition of glucagon-induced cAMP by LANCE TR-FRET assay
Format: cell-based, Canis lupus familiaris
Conditions: not given

Ki [µM] | SMILES
0.09 | Cc1c(-c2ccc(C(F)(F)F)cc2Cl)ccc2nn([C@@H](CC(C)C)c3ccc(C(=O)NCCC(=O)O)cc3)cc12

System: Canis familiaris
Assay: Antidiabetic activity in Beagle dog assessed as reduction in blood glucose level at 10 mg/kg, po administered via gavage as single dose 90 mins prior to glucagon challenge measured up to 60 mins post glucagon challenge by glucometer analysis
Format: functional, organism-based
Conditions: Canis lupus familiaris

SMILES | inhibition
Cc1c(-c2ccc(C(F)(F)F)cc2Cl)ccc2nn([C@@H](CC(C)C)c3ccc(C(=O)NCCC(=O)O)cc3)cc12 | Active

System: Canis familiaris
Assay: Antidiabetic activity in Beagle dog assessed as reduction in blood glucose AUC at 10 mg/kg, po administered via gavage as single dose 90 mins prior to glucagon challenge by glucometer analysis
Format: functional, organism-based
Conditions: Canis lupus familiaris

SMILES | inhibition
Cc1c(-c2ccc(C(F)(F)F)cc2Cl)ccc2nn([C@@H](CC(C)C)c3ccc(C(=O)NCCC(=O)O)cc3)cc12 | Active
